Data as given in the supplement of paper PMC9013687.
± gives the standard deviation of the averaged measurements.

Columns and labels:
Danio rerio embryo [1] = details: exposure time: 4 dpf
Procedure: (§1)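 Zebrafish embryos (UFZ-OBI strain) were exposed from 2 hpf for 48 h (2 dpf) or 96 h (4 dpf) at 28 °C; spontaneous tail coiling was scored at 25 hpf. Morphological features from automated image analysis (FishInspector), heart rate and locomotor response were fitted with drc models. Quantal endpoints were dichotomised at 2.5 SD from controls and fitted with a log-logistic model; heart rate, pigmentation and STC were normalised to the replicate control mean. Betamethasone was tested as betamethasone dipropionate, diflorasone as diflorasone diacetate.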

Danio rerio embryo [2] = test: EC20 Body length_Decrease; higher = less potent; details: exposure time: 4 dpf
Procedure: as §1

Danio rerio embryo [3] = test: EC20 Pericard size_Increase; higher = less potent; details: exposure time: 4 dpf
Procedure: as §1

Danio rerio embryo [4] = test: EC10 Lack of SB; higher = less potent; details: exposure time: 4 dpf
Procedure: as §1

Danio rerio embryo [5] = test: EC10 Body length_Decrease; higher = less potent; details: exposure time: 4 dpf
Procedure: as §1

Danio rerio embryo [6] = test: EC20 LMR dark; higher = less potent; details: exposure time: 4 dpf
Procedure: as §1

Danio rerio embryo [7] = test: EC50 Bladder size_Decrease; details: exposure time: 4 dpf
Procedure: as §1

Danio rerio embryo [8] = test: EC10 Pericard size_Increase; higher = less potent; details: exposure time: 4 dpf
Procedure: as §1

Danio rerio embryo [9] = test: EC50 Body length_Decrease; details: exposure time: 4 dpf
Procedure: as §1

Danio rerio embryo [10] = test: EC50 Pericard size_Increase; details: exposure time: 4 dpf
Procedure: as §1

Danio rerio embryo [11] = test: spontaneous tail coiling frequency (coils/min/embryo); higher = more spontaneous movement; details: 25 hpf
Procedure: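 Spontaneous tail coilings of zebrafish embryos exposed from 2 hpf were recorded at 24-25 hpf in 1-min videos and detected by a KNIME workflow from grey-value variance. Betamethasone was tested as the dipropionate, diflorasone as the diacetate.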

Danio rerio embryo [12] = test: EC10 LMR dark; higher = less potent; details: exposure time: 4 dpf
Procedure: as §1

Danio rerio embryo [13] = test: EC20 Bladder size_Decrease; higher = less potent; details: exposure time: 4 dpf
Procedure: as §1

Danio rerio embryo [14] = test: EC10 Bladder size_Decrease; higher = less potent; details: exposure time: 4 dpf
Procedure: as §1

Danio rerio embryo [15] = details: exposure time: 4 dpf; remark: listed apart in the source
Procedure: as §1

Danio rerio embryo [16] = test: EC20 Lack of SB; higher = less potent; details: exposure time: 4 dpf
Procedure: as §1

Cc1cc2c(s1)Nc1ccccc1N=C2N1CCN(C)CC1 [Olanzapine]
Details	EC10 Bladder size Decrease [µM]	EC10 Body length Decrease [µM]	EC10 LMR dark [µM]	EC10 Lack of SB [µM]	EC10 Pericard size Increase [µM]	EC20 Bladder size Decrease [µM]	EC20 Body length Decrease [µM]	EC20 LMR dark [µM]	EC20 Lack of SB [µM]	EC20 Pericard size Increase [µM]	EC50 Bladder size Decrease [µM]	EC50 Body length Decrease [µM]	EC50 LMR dark [µM]	EC50 Lack of SB [µM]	EC50 Pericard size Increase [µM]
Danio rerio embryo [1]	–	–	–	–	–	–	–	–	–	–	–	–	24	–	–
Danio rerio embryo [2]	–	–	–	–	–	–	24.7	–	–	–	–	–	–	–	–
Danio rerio embryo [3]	–	–	–	–	–	–	–	–	–	34.1	–	–	–	–	–
Danio rerio embryo [4]	–	–	–	8.09	–	–	–	–	–	–	–	–	–	–	–
Danio rerio embryo [5]	–	17.7	–	–	–	–	–	–	–	–	–	–	–	–	–
Danio rerio embryo [6]	–	–	–	–	–	–	–	9.63	–	–	–	–	–	–	–
Danio rerio embryo [7]	–	–	–	–	–	–	–	–	–	–	9.13	–	–	–	–
Danio rerio embryo [8]	–	–	–	–	26.4	–	–	–	–	–	–	–	–	–	–
Danio rerio embryo [9]	–	–	–	–	–	–	–	–	–	–	–	43.8	–	–	–
Danio rerio embryo [10]	–	–	–	–	–	–	–	–	–	–	–	–	–	–	53.1
Danio rerio embryo [12]	–	–	5.65	–	–	–	–	–	–	–	–	–	–	–	–
Danio rerio embryo [13]	–	–	–	–	–	7.84	–	–	–	–	–	–	–	–	–
Danio rerio embryo [14]	7.17	–	–	–	–	–	–	–	–	–	–	–	–	–	–
Danio rerio embryo [15]	–	–	–	–	–	–	–	–	–	–	–	–	–	9.71	–
Danio rerio embryo [16]	–	–	–	–	–	–	–	–	8.65	–	–	–	–	–	–

Danio rerio embryo [11]
Details	spontaneous tail coiling frequency
5.4 µM	2.35 ± 0.46
8.1 µM	2.37 ± 0.57
12.1 µM	2.38 ± 0.45
18.1 µM	1.89 ± 0.88
27.2 µM	2.465 ± 0.0071
32 µM	2.44 ± 0.63
